For eleven compounds, IC50 results are on record in patent US11453647B2, “Benzimidazole derivatives as adenosine receptor antagonists” (Merck Patent GmbH, priority 2017, dated 2022).

Where only a bound is given, the exact number is not on record here.

Assay type in all cases: cell-based
One assay concerns the target T1, human A2A receptor (Homo sapiens, UniProt P29274).
T1 construct: expressed in transfected cells; host or cells: HEK293
Description: functional cAMP (HTRF) assay, recombinant HEK293 cells expressing human A2A receptor, agonist NECA. A general note: In TR-FRET formats the signal depends on donor and acceptor labels being close together.

The target in the next assay is T2, A2B receptors (Homo sapiens, UniProt P29275).
T2 sequence (P29275 1-332): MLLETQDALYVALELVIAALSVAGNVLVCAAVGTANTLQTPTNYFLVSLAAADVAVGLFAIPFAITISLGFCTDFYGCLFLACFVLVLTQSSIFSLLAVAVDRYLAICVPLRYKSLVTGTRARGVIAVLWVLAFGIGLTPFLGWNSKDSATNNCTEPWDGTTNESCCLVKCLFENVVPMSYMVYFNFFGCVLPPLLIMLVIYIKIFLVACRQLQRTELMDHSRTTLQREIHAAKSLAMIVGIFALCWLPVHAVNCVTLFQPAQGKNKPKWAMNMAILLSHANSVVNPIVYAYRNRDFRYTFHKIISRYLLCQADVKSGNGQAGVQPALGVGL
Description: functional cAMP (HTRF) assay, recombinant HEK293 cells expressing human A2B receptor, agonist NECA. More on the design: expressed in transfected cells; host or cells: HEK293.

For the next assay, the target named is T3, human A3 receptor (Homo sapiens, UniProt P0DMS8).
T3 construct: expressed in transfected cells; host or cells: CHO
T3 sequence (P0DMS8 1-318): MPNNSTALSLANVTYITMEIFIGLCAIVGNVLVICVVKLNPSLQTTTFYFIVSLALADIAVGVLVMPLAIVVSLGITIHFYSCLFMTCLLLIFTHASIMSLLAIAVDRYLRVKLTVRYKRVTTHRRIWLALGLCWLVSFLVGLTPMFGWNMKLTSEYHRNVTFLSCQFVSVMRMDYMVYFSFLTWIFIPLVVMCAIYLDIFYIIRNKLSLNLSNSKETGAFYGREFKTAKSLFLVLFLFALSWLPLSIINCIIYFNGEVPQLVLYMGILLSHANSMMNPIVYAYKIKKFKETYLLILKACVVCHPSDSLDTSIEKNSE
Description: functional cAMP (HTRF) assay, recombinant CHO cells expressing human A3 receptor, forskolin, agonist IB-MECA. On the procedure: The functional activities of human A2A, A2B, A1 and A3 receptors were determined by quantification of cAMP, being the second messenger for adenosine receptors.
For human A1 and A3 receptors, recombinant CHO cells, expressing either A1 or A3-receptor, were used. As both receptors couple to Gi proteins, the assay protocol was adapted:
Cells were seeded into 384-well plates, forskolin, test compounds and agonists (CPA for A1- and IB-MECA for A3-receptor) were added. After 30 min incubation, HTRF reagents (cAMP dynamic 2, Cis Bio) were added and the cellular cAMP levels were determined using the ENVISION (Perkin Elmer) plate reader. Obtained raw data were normalized against the inhibitor control and the neural control (DMSO) and the normalized data were fitted using GeneData software.

T1 sequence (P29274 whole entry): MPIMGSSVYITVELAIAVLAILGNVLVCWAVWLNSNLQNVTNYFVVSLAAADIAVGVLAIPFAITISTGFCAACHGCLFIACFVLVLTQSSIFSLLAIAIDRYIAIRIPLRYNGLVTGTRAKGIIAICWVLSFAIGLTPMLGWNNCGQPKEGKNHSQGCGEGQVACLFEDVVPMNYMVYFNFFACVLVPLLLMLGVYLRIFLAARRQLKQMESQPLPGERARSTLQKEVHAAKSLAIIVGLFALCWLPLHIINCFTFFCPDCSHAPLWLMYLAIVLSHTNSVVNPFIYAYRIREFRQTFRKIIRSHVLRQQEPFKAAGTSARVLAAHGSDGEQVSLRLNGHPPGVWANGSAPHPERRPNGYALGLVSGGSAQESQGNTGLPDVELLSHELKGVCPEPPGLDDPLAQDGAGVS

Usually IC50 stands for the concentration that gives 50% inhibition. On to `COc1cc(F)c(C2CCOCC2)c2nc(NC(=O)c3ccc(C(=O)N(C)C)cc3)[nH]c12` [compound 277, N4-[5-fluoro-7-methoxy-4-(oxan-4-yl)-1H-1,3-benzodiazol-2-yl]-N1,N1-dimethylbenzene-1,4-dicarboxamide], for which the figures for the half-maximal inhibitory concentration (IC50) on human A2A receptor, on A2B receptors and at human A3 receptor were less than 100 nM, less than 100 nM and greater than 1000 nM, respectively.
For the compound `COc1ccc(-c2ccccc2)c2nc(NC(=O)c3ccc(Br)nc3)[nH]c12` [compound 5, 6-Bromo-N-(7-methoxy-4-phenyl-1H-benzoimidazol-2-yl)-nicotinamide], the IC50 on human A2A receptor is less than 10 nM; at A2B receptors it was less than 100 nM; on human A3 receptor it was less than 10 nM.
`COc1ccc(-c2ccccc2)c2nc(NC(=O)N3CCC(C)CC3)[nH]c12` [compound 28, 4-Methyl-piperidine-1-carboxylic acid (7-methoxy-4-phenyl-1H-benzoimidazol-2-yl)-amide]: the IC50 at human A2A receptor was less than 10 nM; on A2B receptors, less than 1000 nM; on human A3 receptor, less than 1000 nM.
`COc1ccc(-c2ccncc2)c2nc(NC(=O)c3ccc(CN(C)C)cc3)[nH]c12` [compound 89, 4-[(dimethylamino)methyl]-N-[7-methoxy-4-(pyridin-4-yl)-1H-1,3-benzodiazol-2-yl]benzamide]: the IC50 at human A2A receptor is less than 100 nM; on A2B receptors, less than 1000 nM; on human A3 receptor it was greater than 1000 nM.
For `CCCN(C)C(=O)c1ccc(C(=O)Nc2nc3c(OC)ccc(-c4ccccc4)c3[nH]2)cc1` [compound 297, N4-(4-methoxy-7-phenyl-1H-1,3-benzodiazol-2-yl)-N1-methyl-N1-propylbenzene-1,4-dicarboxamide], in that order: less than 100 nM, less than 100 nM and less than 1000 nM.
Consider `COc1ccc(C2CCOCC2)c2nc(NC(=O)c3ccc(N4C(=O)CCC4=O)cc3)[nH]c12` [compound 250, 4-(2,5-dioxopyrrolidin-1-yl)-N-[7-methoxy-4-(oxan-4-yl)-1H-1,3-benzodiazol-2-yl]benzamide], for which the values for the IC50 on human A2A receptor, at A2B receptors and on human A3 receptor were less than 10 nM, less than 100 nM and greater than 1000 nM, respectively.
Consider `COc1ccc(-c2cnn(C)c2)c2nc(NC(=O)c3ccnc(N4CCC(C)(O)C4)c3)[nH]c12` (stereo not drawn) [compound 30, 2-(3-Hydroxy-3-methyl-pyrrolidin-1-yl)-N-[7-methoxy-4-(1-methyl-1H-pyrazol-4-yl)-1H-benzoimidazol-2-yl]-isonicotinamide], for which the IC50 at human A2A receptor is less than 10 nM; at A2B receptors, greater than 1000 nM; on human A3 receptor, less than 1000 nM.
Consider `COc1ccc(-c2ccccc2)c2[nH]c(NC(=O)c3ccc(C(=O)N(C)CCN(C)C)cc3)nc12` [compound 296, N1-[2-(dimethylamino)ethyl]-N4-(4-methoxy-7-phenyl-1H-1,3-benzodiazo1-2-yl)-N1-methylbenzene-1,4-dicarboxamide], for which the results for the IC50 on human A2A receptor, at A2B receptors and on human A3 receptor were less than 100 nM, less than 10 nM and less than 1000 nM, respectively.
On to `COCCN(C)C(=O)c1ccc(C(=O)Nc2nc3c(OC)ccc(-c4ccccc4)c3[nH]2)cc1` [compound 295, N4-(4-methoxy-7-phenyl-1H-1,3-benzodiazol-2-yl)-N1-(2-methoxyethyl)-N1-methylbenzene-1,4-dicarboxamide], for which the IC50 at human A2A receptor is less than 100 nM; at A2B receptors it was less than 100 nM; on human A3 receptor, less than 1000 nM.
As to `COc1ccc(-c2cccc3cc[nH]c23)c2nc(NC(=O)N3CCC(C)(O)CC3)[nH]c12` [compound 305, 4-hydroxy-N-[4-(1H-indol-7-yl)-7-methoxy-1H-1,3-benzodiazol-2-yl]-4-methylpiperidine-1-carboxamide], the figures for the IC50 at human A2A receptor, on A2B receptors and at human A3 receptor were less than 100 nM, less than 100 nM and greater than 1000 nM, respectively.
On to `CCCNC(=O)c1ccc(C(=O)Nc2nc3c(OC)ccc(-c4ccccc4)c3[nH]2)cc1` [compound 293, N1-(4-methoxy-7-phenyl-1H-1,3-benzodiazol-2-yl)-N4-propylbenzene-1,4-dicarboxamide], for which the IC50 on human A2A receptor was less than 100 nM; on A2B receptors, less than 100 nM; at human A3 receptor, less than 1000 nM.
